Reference: patent publication US6303789A, “Benzamides with tetrahydrofuranyloxy substitutents as phosphodiesterase 4 inhibitors” (Byk Gulden Lomberg Chemische Fabrik GmbH, priority 1998, dated 2001)

Test system: PDE4
Assay: Inhibition of PDE4 activity (method of Bauer and Schwabe, adapted to microtiter plates)
Assay type: biochemical
Details: inhibitory concentration as -log IC50 (mol/l)

For `COc1ccc(C(=O)Nc2c(Cl)cncc2Cl)cc1OC1COCC1OC` (stereo not shown) [Compound 1, N-(3,5-Dichloropyridin-4-yl)-4-methoxy-3-(4-methoxytetrahydrofuran-3-yloxy)benzamide], the “Inhibition of the PDE4 activity, -log IC50” value (from here on “Inhibition … -log IC50”) was 8.24.

In the case of `COc1ccc(C(=O)Nc2c(Cl)cncc2Cl)cc1OC1COCC1O` (stereo not shown) [Compound 6, N-(3,5-Dichloropyridin-4-yl)-3-(4-hydroxytetrahydrofuran-3-yloxy)-4-methoxybenzamide], the “Inhibition … -log IC50” value was 8.02.

For `COc1ccc(C(=O)Nc2c(Cl)cncc2Cl)cc1OC1COCC1OCc1ccccc1` (stereo not shown) [Compound 3, N-(3,5-Dichloropyridin-4-yl)-3-(4-benzyloxytetrahydrofuran-3-yloxy)-4-methoxybenzamide], the “Inhibition … -log IC50” value was 8.70.

With `CCOC1COCC1Oc1cc(C(=O)Nc2c(Cl)cncc2Cl)ccc1OC` (stereo not shown) [Compound 2, N-(3,5-Dichloropyridin-4-yl)-3-(4-ethoxytetrahydrofuran-3-yloxy)-4-methoxybenzamide] the “Inhibition … -log IC50” value was 8.25.

In the case of `COc1ccc(C(=O)Nc2c(Cl)cncc2Cl)c2c1OC1(COCC1OCc1ccccc1)C2` (stereo not shown) [Compound 5, N-(3,5-Dichloropyridin-4-yl)-2,3-dihydro-4'-benzyloxy-7-methoxybenzofuran-2-spiro-3'-tetrahydrofuran-4-carboxamide], the “Inhibition … -log IC50” value was 8.58.

`COc1ccc(C(=O)Nc2c(Cl)cncc2Cl)cc1OC1COCC1OCSC` (stereo not shown) [Compound 7, N-(3,5-Dichloropyridin-4-yl)-4-methoxy-3-(4-methylthiomethyloxytetrahydrofuran-3-yloxy)-benzamide] was tested, and the “Inhibition … -log IC50” value was 8.54.

`COc1ccc(C(=O)Nc2c(Cl)cncc2Cl)c2c1OC1(COCC1OC)C2` (stereo not shown) [Compound 4, N-(3,5-Dichloropyridin-4-yl)-2,3-dihydro-4',7-dimethoxybenzofuran-2-spiro-3'-tetrahydro-furan-4-carboxamide] was tested, and the “Inhibition … -log IC50” value was 8.11.
